Assay results: patent US20120252773A1, “Method and composition for inhibiting cell proliferation and angiogenesis” (priority 2005, published 2012)

Tests used:
[1] = test system: HIF-1α protein in PC-3 prostate cancer cells; experiment: HIF-1α protein expression by immunoblotting, PC-3 cells; type: cell-based, human; settings: 6 h
Experimental: (§1) Hypoxia experiments were performed in either of two ways. To produce a very low ambient oxygen concentration (effectively anoxia), we used a protocol in which cells were incubated in a 5% CO2-air atmosphere at 37° C. overnight and then placed in aluminum gas-exchange chambers maintained at 37° C. (Laderoute K R et al. Mol Cell Biol 22: 2515-2523, (2002); Laderoute K R et al. Mol Cell Biol 24: 4128-4137, (2004)). The chambers containing the cells were then placed in a 37° C. circulating water bath and the original atmosphere was repeatedly exchanged with 5% CO2-95% N2 using a manifold equipped with a vacuum pump and a gas cylinder. Atmospheric oxygen partial pressure (pO2) values of less than or equal to 0.01% (relative to air at pO2 of about 21%) can be achieved inside the chambers using this system. Following various hypoxic exposures, the chambers were opened an anaerobic glove box (Bactron X, Sheldon Manufacturing Inc., Cornelius, Oreg.; attached to a cylinder containing 5% CO2-95% N2) to prepare cell lysates without significant reoxygenation. All manipulations of hypoxic cells were performed in the anaerobic glove box. Atmospheric oxygen levels in both the chambers and the glove box have been measured and calibrated using a polarographic oxygen electrode (Oxygen Sensors, Inc., Norristown, Pa.). Hypoxia experiments involving a pO2 of 1% were performed by equilibrating the glove box with an atmosphere of 1% O2 5% CO2 95% N2 held at 37° C. with a circulating fan. Cells were incubated inside a humidified space in the glove box and the medium on the cells was gently and continually agitated by using a rotary shaker. For these experiments, we used RAW 264.7 immortalized mouse macrophages as normal control cells, PC-3 prostate cancer cells, and MDA-MB-231 breast cancer cells, all available from ATCC.
(§2) We used immunoblotting to evaluate the experiments. Nuclear lysates were used to detect HIF-1α protein by immunoblotting (Murphy B J et al. Biochem Biophys Res Commun (In Press): 2005). Briefly, cells were placed on ice in air or on Super Ice® cold packs in the anaerobic glove box and the medium was removed. […] After spinning at 9,000×g for 5 min at 4° C., the protein concentrations of the supernatants were determined by using a bicinchoninic acid assay (Pierce Biotechnology). […] Primary antibody binding was detected and visualized by using the ECL Plus Western Blotting Detection System (Amersham Pharmacia Biotech) according to the supplier's instructions. HIF-1α protein was detected by using an anti-HIF-1α monoclonal antibody (Novus Biologicals, Cat. No. NB100-123; diluted 1:500) and a horseradish peroxidase-conjugated anti-mouse IgG secondary antibody (Santa Cruz Biotechnology, Cat. No. sc-2062; diluted 1:20,000). […]

[2] = test system: HIF-1α protein in MDA-MB-231 human breast carcinoma cells; experiment: HIF-1α protein expression by immunoblotting, MDA-MB-231 cells; type: cell-based; settings: MDA-MB-231, normoxic and anoxic
Experimental: as §1, with “Hypoxia experiments involving a pO2 of 1% were performed by equilibrating the glove box with an atmosphere of 1% O2 5% CO2 95% N2 held at 37° C. with a circulating fan. Cells were incubated inside a humidified space in the glove box and the medium on the cells was gently and continually agitated by using a rotary shaker. For these experiments, we used RAW 264.7 immortalized mouse macrophages as normal control cells, PC-3 prostate cancer cells, and MDA-MB-231 breast cancer cells, all available from ATCC.” left out
as §2, with “experiments.” for “experiments. Nuclear lysates were used to detect HIF-1α protein by immunoblotting (Murphy B J et al. Biochem Biophys Res Commun (In Press): 2005). Briefly, cells were placed on ice in air or on Super Ice® cold packs in the anaerobic glove box and the medium was removed.”

[3] = test system: human endometrial Ishikawa cells; experiment: Estrogenic activity, alkaline phosphatase, Ishikawa cell-based assay; settings: 72 hours
Experimental: Ishikawa cell based assays were run in parallel on human endometrial Ishikawa cells treated with compound (2) or with 2-methoxyestradiol. 2-Methoxyestradiol is a compound reported in the literature as an anti-angiogenic agent. Cells were cultured in 96-well plates for 48 hours in estrogen- and phenol red-free medium (DMEM/Hamm's F12 medium) containing 5% fetal bovine serum stripped of endogenous estrogens with dextran coated charcoal (Sigma). Compound (2) or other test compounds were then added to the cells and culturing was continued for an additional 72 hours. To the control cells (no (2)), 10^−9 M of […] was added. At the end of 72 hours, alkaline phosphatase activity was measured by adding 5 mM p-nitrophenyl phosphate, 0.24 mM MgCl2, and 1 M diethanolamine (pH 9.8) to the cells while the 96-well plates were kept on ice. The plates were then warmed to room temperature, and the yellow color from the production of p-nitrophenol was measured after 2-3 hours using an ELISA plate reader at a wavelength of 405 nm. The estrogenic activity was defined as the alkaline phosphatase activity stimulated by the test compounds alone as a percentage of that stimulated by estradiol at 10^−9 M. Stimulation by estradiol at 10^−9 M was taken as 100%.

[4] = test system: DU-145 Human Androgen-Independent Prostate Cancer Cells; experiment: Apoptosis by TUNEL assay in DU-145 cells; type: cell-based; settings: DU-145, 10 μM, 24 hours
Experimental: DU-145 cells (ATCC) were treated with 10 μM (2) for 24 hours. Apoptosis was measured by the terminal deoxynucleotidyl transferase mediated dUTP nick end labeling (TUNEL) assay. This assay was conducted using the Apoptosis Detection Kit (Promega, Madison, Wis.) following the instructions provided by the manufacturer. Briefly, DU-145 cells were incubated with (2) for 24, 48, or 72 hours. At the end of incubation, cells were fixed with freshly prepared 4% methanol-free paraformaldehyde in PBS, washed, and then permeabilized in 0.2% Triton X-100 in PBS. The cells on the slides were then incubated with Tdt enzyme for 1 h at 37° C., stained with propidium iodide, and examined under a fluorescence microscope. Fragmented DNA was made visible with green fluorescence stain within the apoptotic cells.

C[C@@H]1Cc2cc(O)ccc2C2CCC3(C)/C(=C/COCCN(C)C)CCC3C21 (stereo partly drawn) [Compound (2), (E)-3-Hydroxy-7α-methyl-21-[(2-dimethylamino)ethoxy]-19-norpregna-1,3,5(10),17(20)-tetraene]
HIF-1α protein expression ([1]; PC-3, anoxic, hypoxic and normoxic conditions, less than or equal to 5 μM): potent inhibitory effect
cytotoxicity toward PC-3 cells ([1]; PC-3, less than or equal to 5 μM): without obvious cytotoxicity
HIF-1α protein expression [2]: potent inhibitor
estrogenic activity (alkaline phosphatase stimulation relative to estradiol at 10^−9 M) [3]: essentially no such activity
apoptosis, fragmented DNA (TUNEL) [4]: quite a few pieces of fragmented DNA were evident
